Assay results from PubChem BioAssay (NCI).
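A five-concentration, 48-hour dose response in 96-well plates underlies each endpoint, interpolated linearly between surrounding concentrations. TGI is the concentration that stops growth completely.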

Tests used:
Assay in all cases: NCI-60 cell line screen, 48 h
786-0 renal = test system: 786-0 renal
A498 renal = test system: A498 renal
A549 NSCLC = test system: A549 NSCLC
ACHN renal = test system: ACHN renal
CAKI-1 renal = test system: CAKI-1 renal
COLO 205 colon = test system: COLO 205 colon
DLD-1 colon = test system: DLD-1 colon
DMS 114 small cell lung = test system: DMS 114 small cell lung
DMS 273 small cell lung = test system: DMS 273 small cell lung
EKVX NSCLC = test system: EKVX NSCLC
HCC-2998 colon = test system: HCC-2998 colon
HCT-116 colon = test system: HCT-116 colon
HCT-15 colon = test system: HCT-15 colon
HOP-18 NSCLC = test system: HOP-18 NSCLC
HOP-62 NSCLC = test system: HOP-62 NSCLC
HOP-92 NSCLC = test system: HOP-92 NSCLC
HT29 colon = test system: HT29 colon
IGROV1 ovarian = test system: IGROV1 ovarian
KM12 colon = test system: KM12 colon
KM20L2 colon = test system: KM20L2 colon
LOX IMVI melanoma = test system: LOX IMVI melanoma
LXFL 529 NSCLC = test system: LXFL 529 NSCLC
M14 melanoma = test system: M14 melanoma
M19-MEL melanoma = test system: M19-MEL melanoma
MALME-3M melanoma = test system: MALME-3M melanoma
NCI-H226 lung = test system: NCI-H226 lung
NCI-H23 lung = test system: NCI-H23 lung
NCI-H460 lung = test system: NCI-H460 lung
OVCAR-3 ovarian = test system: OVCAR-3 ovarian
OVCAR-4 ovarian = test system: OVCAR-4 ovarian
OVCAR-5 ovarian = test system: OVCAR-5 ovarian
OVCAR-8 ovarian = test system: OVCAR-8 ovarian
RPMI-8226 leukemia = test system: RPMI-8226 leukemia
RXF 393 renal = test system: RXF 393 renal
SF-268 CNS = test system: SF-268 CNS
SF-295 CNS = test system: SF-295 CNS
SF-539 CNS = test system: SF-539 CNS
SK-MEL-2 melanoma = test system: SK-MEL-2 melanoma
SK-MEL-28 melanoma = test system: SK-MEL-28 melanoma
SK-OV-3 ovarian = test system: SK-OV-3 ovarian
SN12C renal = test system: SN12C renal
SNB-19 CNS = test system: SNB-19 CNS
SNB-75 CNS = test system: SNB-75 CNS
SNB-78 CNS = test system: SNB-78 CNS
SW-620 colon = test system: SW-620 colon
TK-10 renal = test system: TK-10 renal
U251 CNS = test system: U251 CNS
UACC-257 melanoma = test system: UACC-257 melanoma
UACC-62 melanoma = test system: UACC-62 melanoma
UO-31 renal = test system: UO-31 renal
XF 498 CNS = test system: XF 498 CNS
CCRF-CEM leukemia = test system: CCRF-CEM leukemia
HL-60(TB) leukemia = test system: HL-60(TB) leukemia
K-562 leukemia = test system: K-562 leukemia
MOLT-4 leukemia = test system: MOLT-4 leukemia
NCI-H522 lung = test system: NCI-H522 lung
SK-MEL-5 melanoma = test system: SK-MEL-5 melanoma
SR leukemia = test system: SR leukemia

Measured: TGI

N#CC(C(=O)/C(=N\Nc1nc(=S)[nH]n1N)C(C#N)c1ccc(Cl)cc1)c1ccc(Cl)cc1 (centres undefined)
not listed: CCRF-CEM leukemia | HL-60(TB) leukemia | K-562 leukemia | MOLT-4 leukemia | NCI-H522 lung | SK-MEL-5 melanoma | SR leukemia
> 100 µM: all other assays above

Cc1ccc(-c2nc(SCC(=O)O)n[nH]2)cc1
not listed: LOX IMVI melanoma | RXF 393 renal
> 100 µM: all other assays above

C=C/C=C(\NC(=O)C(Cl)(Cl)Cl)[Si](C)(C)C
not listed: CAKI-1 renal
> 100 µM: all other assays above
